Measurements from US9233961B2, “Compounds and compositions for the treatment of parasitic diseases” (Novartis AG, priority 2013, dated 2016).

Tests used:
[1] = system: Leishmania donovani axenic amastigote parasites; assay: Leishmania donovani axenic amastigote proliferation assay; assay type: cell-based; details: axenic amastigotes in vitro, read-out: L. donovani amastigotes EC50
Experimental: Leishmania Donovani Axenic Amastigote Proliferation Assay
Leishmania donovani axenic amastigote parasites are grown at 37° C., 5% CO2 in media made of RPMI 1640, 4 mM L-glutamine, 20% heat inactivated FBS, 100 units/ml of penicillin and 100 μg/ml of streptomycin, 23 μM Folic Acid, 100 μM Adenosine, 22 mM D-glucose, 25 mM MES. The pH of media is adjusted to 5.5 at 37° C. using HCl. 20 μL of media is first dispensed into 384 well plates and 100 nL of the compounds of invention in DMSO are added to the plate wells. At the same time control compounds and DMSO are added to plates to serve as the positive and negative controls, respectively. 40 μL of parasite culture (9600 parasites) are then added to the plate wells. The plates are then placed into incubators. After 2 day incubation, 20 μL of Cell TiterGlo (Promega) is added to the plate wells. The luminescence signal of each well is measured using the Envision reader (Perkin Elmer). The percentage inhibition of 50%, EC50, is calculated for each of the compounds.

[2] = system: L. donovani HU3 strain in mouse peritoneal macrophages; assay: Assay for proliferation of Leishmania parasites in mouse peritoneal macrophages; assay type: cell-based, Leishmania donovani; details: Leishmania donovani, Peritoneal macrophage, read-out: L. donavani Macrophage EC50
Excerpt: Assay for Proliferation of Leishmania Parasites
The activity of a compound according to the present invention for inhibition of parasitemai can be assessed by the parasite proliferation assay. The assay measures the increase in the parasite number in the assayed plate well using a DNA intercalating dye, SYBR Green I® dye (INVITROGEN) to stain Leishmania cell nuclei. It is understood that the assays illustrate the invention without in any way limiting the scope of the invention.
L. donovani HU3 strain is propagated by infecting BALB/c mice through tail vein injection with 10^7 Leishmania parasites. Infected mice are allowed to develop infection during 9-11 weeks post-infection. During this time, the parasites accumulate in the infected mouse spleens to large numbers, and the infected mice serve as the source of parasites for the in vitro measurement of compound efficacies. To assay a compound for anti-leishmanial activity, peritoneal macrophages isolated from non-infected BALB/c mice are seeded into 384-well plates at density 2×10^4 macrophages per well in […] of medium (RPMI 1640, 10% […], 10 mM HEPES, 1 mM sodium pyruvate, 1% Pen/Strep). Subsequently, the seeded plates are placed into an incubator set to maintain 37° C. temperature and atmosphere with 5% CO2. The next day, Leishmania parasites are isolated from the spleens of mice infected for 9-11 weeks and 4×10^5 isolated parasites in […] of the above media are added to each plate well. Plates are then returned into incubators and infection is allowed to proceed for 24 hours. After the infection of macrophages is completed, […] of compounds of the invention in the above medium, which also contains 5% DMSO, are added to plate wells containing infected macrophages. At the same time control compounds (miltefosine and amphotericin B) and DMSO are added to plates to serve as the positive and negative controls, respectively. After the compound addition, the plates are returned into incubator and cells infected with parasites are cultured for 5 days. At the end of cultivation, […] of 8% paraformaldehyde is added to plate wells and incubated for 15 min at room temperature. Following the incubation, the paraformaldehyde from plate wells is aspirated, and […] of PBS containing 0.2% Triton X-100 is added to wells. After 15 min incubation, the solution is aspirated from wells again, and replaced with SybrGreen Dye solution in PBS (1:125,000 dilution). Infected cells are imaged with Evotec Opera high-content microscope, and the number of parasites in well is determined by counting parasite nuclei visualized by staining with SybrGreen dye. The percentage inhibition of 50%, EC50, is calculated for each compound.
The inhibitory efficacy of the compounds of the invention in delaying the proliferation of L. donovani in mouse peritoneal macrophages is provided in Table I, infra.

| SMILES | EC50 [1] [µM] | EC50 [2] [µM] |
| --- | --- | --- |
| CCOC(=O)Nc1ccc(Cl)c(-c2nc3ncc(C#N)cc3[nH]2)c1 [Compound 289] | 4.2 | 8.1 |
| C=Cc1cnc2nc(-c3cc(NC(=O)c4ccco4)ccc3Cl)[nH]c2c1 [Example 74, N-(4-chloro-3-{6-ethenyl-1H-imidazo[4,5-b]pyridin-2-yl}phenyl)furan-2-carboxamide] | 0.45 | 3.09 |
| O=C(Nc1ccc(F)c(-c2nc3ncc(Br)cc3o2)c1)c1cocn1 [Compound 410] | > 25 | > 50 |
| Cc1cnc2nc(-c3cc(NC(=O)Nc4ccc(C(F)(F)F)cc4)ccc3Cl)[nH]c2c1 [Compound 248] | > 25 | 23.1 |
| Cc1cnc2nc(-c3cc(NC(=O)c4ncco4)ccc3Cl)[nH]c2c1 [Compound 104] | > 25 | > 50 |
| CC(=O)Nc1ccc(-c2cnc3nc(-c4cc(NC(=O)c5ccco5)ccc4Cl)[nH]c3c2)cc1 [Compound 18] | 0.3 | 1.48 |
| CN(C)Cc1ccc(C(=O)Nc2ccc(Cl)c(-c3nc4ncc(C(F)(F)F)cc4[nH]3)c2)o1 [Compound 277] | > 25 | 15.2 |
| [2H]C([2H])([2H])C([2H])([2H])OC(=O)Nc1ccc(Cl)c(-c2nc3ncc(C)cc3[nH]2)c1 [Compound 215] | 13.3 | 18.1 |
| Cc1cnc2nc(-c3cc(NC(=O)c4ccc(C(F)(F)F)cc4)ccc3Cl)[nH]c2c1 [Compound 153] | > 25 | 14.9 |
| CC(C)OC(=O)Nc1ccc(Cl)c(-c2nc3ncc(C#N)cc3n2C(=O)OC(C)C)c1 [Compound 288] | 1.59 | 0.13 |
| O=C(CCN1CCCCC1)Nc1ccc(F)c(-c2nc3ncc(Cl)cc3[nH]2)c1 [Compound 359] | > 25 | > 35.3 |
| O=C(Nc1ccc(C(F)(F)F)cc1)Nc1ccc(F)c(-c2nc3ncc(-c4ccc(CN5CCOCC5)cc4)cc3o2)c1 [Compound 395] | 12 | 6.8 |
| O=C(Nc1ccc(Cl)c(-c2nc3ncc(-c4ccc5c(c4)OCO5)cc3[nH]2)c1)c1ccco1 [Compound 27] | 2.66 | 24.4 |
| CC(C)(C)c1nnc(C(=O)Nc2ccc(F)c(-c3nc4ncc(Br)cc4o3)c2)o1 [Compound 407] | > 25 | > 4.2 |
| CC(C)C(=O)Nc1ccc(-c2cnc3nc(-c4cc(NC(=O)c5ccco5)ccc4Cl)[nH]c3c2)cc1 [Compound 53] | 0.112 | 0.154 |
| CN(C)c1ccc(-c2cnc3nc(-c4cc(NC(=O)c5ccco5)ccc4Cl)[nH]c3c2)cn1 [Compound 65] | 0.197 | 1.58 |
| O=C(Nc1ccc(-c2cnc3nc(-c4cc(NC(=O)c5ccco5)ccc4Cl)[nH]c3c2)cc1)NC1CC1 [Compound 45] | 1.47 | 3.4 |
| CC(C)OC(=O)Nc1ccc(Cl)c(-c2nc3ncc(-c4ccc(NC(=O)CN)cc4)cc3[nH]2)c1 [Compound 338] | 2.4 | 0.42 |
| Cc1cnc2nc(-c3cc(NC(=O)c4ccco4)ccc3Cl)[nH]c2c1 [Example 1, N-(4-chloro-3-{6-methyl-1H-imidazo[4,5-b]pyridin-2-yl}phenyl)furan-2-carboxamide] | 2.2 | 9 |
| O=C(Nc1ccc(Cl)c(-c2nc3ncc(-c4ccc(OCCn5cccn5)cc4)cc3[nH]2)c1)c1ccco1 [Compound 40] | 0.61 | 0.97 |
| Cc1cnc2nc(-c3cc(NC(=O)Cc4cc(C)no4)ccc3Cl)[nH]c2c1 [Compound 88] | > 25 | > 50 |
| Cc1cnc2nc(-c3cc(NC(=O)N4CC[C@H](F)C4)ccc3Cl)[nH]c2c1 [Compound 235] | 3.5 | 8.8 |

| SMILES | EC50 [1] [µM] | EC50 [2] [µM] |
| --- | --- | --- |
| O=C(Nc1ccc(C(F)(F)F)cc1)Nc1ccc(F)c(-c2nc3ncc(-c4ccc(CCN5CCOCC5)cc4)cc3o2)c1 [Example 389, 3-[4-Fluoro-3-(6-{4-[2-(morpholin-4-yl)ethyl]phenyl}-[3]oxazolo[4,5-b]pyridin-2-yl)phenyl]-1-[4-(trifluoromethyl)phenyl]urea] | 11.6 | 11.4 |
| CN1CCN(c2ccc(-c3cnc4nc(-c5cc(NC(=O)c6ccco6)ccc5Cl)[nH]c4c3)cc2)CC1 [Compound 22] | 19 | 4.6 |
| COC(=O)Nc1ccc(-c2cnc3nc(-c4cc(NC(=O)N5CCCC5)ccc4Cl)[nH]c3c2)cc1 [Compound 296] | 0.034 | 0.126 |
| O=C(Nc1ccc(C(F)(F)F)cc1)Nc1ccc(F)c(-c2nc3ncc(-c4ccc(N5CCOCC5)cc4)cc3o2)c1 [Compound 392] | > 25 | 8.4 |
| O=C1NC(=O)C(c2ccc(-c3cnc4nc(-c5cc(NC(=O)c6ccco6)ccc5Cl)[nH]c4c3)cc2)N1 (stereo not shown) [Compound 42] | 1.39 | 4 |
| O=C(Nc1ccc(Cl)c(-c2nc3ncc(-c4ccc(OCCn5ccnc5)cc4)cc3[nH]2)c1)c1ccco1 [Compound 71] | 4 | 1.86 |
| O=C(Nc1ccc(F)c(-c2nc3ncc(-c4cnn(C5CCNCC5)c4)cc3[nH]2)c1)N1CCCC1 [Compound 298] | > 25 | > 50 |
| O=C(Nc1ccc(Cl)c(-c2nc3ncc(C(F)(F)F)cc3[nH]2)c1)c1cncc(F)c1 [Compound 283] | 4 | 11.4 |
| COc1cc(C(=O)Nc2ccc(Cl)c(-c3nc4ncc(C)cc4[nH]3)c2)ccn1 [Compound 129] | > 25 | 27.4 |
| Cc1cnc2nc(-c3cc(NC(=O)c4ccc(F)o4)ccc3Cl)[nH]c2c1 [Compound 90] | 1.88 | 8 |
| CC(C)OC(=O)Nc1ccc(Cl)c(-c2nc3ncc(-c4ccccc4NC(=O)OC(C)C)cc3[nH]2)c1 [Compound 335] | 0.6 | 1.09 |
| COc1ccc(C(=O)Nc2ccc(Cl)c(-c3nc4ncc(C)cc4[nH]3)c2)cc1 [Compound 211] | > 22.8 | > 27.9 |
| O=C(Nc1ccc(Cl)c(-c2nc3ncc(-c4ccsc4)cc3[nH]2)c1)N1CCCC1 [Compound 300] | 0.143 | 0.289 |
| Cc1cc(-c2cnc3nc(-c4cc(NC(=O)c5ccco5)ccc4Cl)[nH]c3c2)cc(C)n1 [Compound 39] | 0.57 | 9.6 |
| CC(C)N(C(=O)Nc1ccc(F)c(-c2nc3ncc(Br)cc3[nH]2)c1)C(C)C [Compound 362] | > 25 | 7.5 |
| CC(C)OC(=O)Nc1ccc(Cl)c(-c2nc3ncc(-c4ccccc4NC(=O)CN)cc3[nH]2)c1 [Compound 340] | 11.7 | 9.8 |
| CCCc1cnc2nc(-c3cc(NC(=O)c4ccco4)ccc3Cl)[nH]c2c1 [Example 75, N-(4-chloro-3-{6-propyl-1H-imidazo[4,5-b]pyridin-2-yl}phenyl)furan-2-carboxamide] | 9.3 | 25.6 |
| O=C(Nc1ccc(Cl)c(-c2nc3ncc(Br)cc3n2CCN2CCOCC2)c1)N1CCCC1 [Compound 388] | > 25 | > 50 |
| CN(C)c1ccc(-c2cnc3nc(-c4cc(NC(=O)Nc5ccc(C(F)(F)F)cc5)ccc4F)oc3c2)cn1 [Compound 403] | 17.4 | > 50 |
| O=C(Nc1ccc(F)c(-c2nc3ncc(-c4ccc(OCC5CO5)cc4)cc3[nH]2)c1)N1CCCC1 (stereo not shown) [Compound 310] | 1.95 | 4.6 |
| Cc1cnc2nc(-c3cc(NC(=O)C(O)c4ccc(C(F)(F)F)cc4)ccc3Cl)[nH]c2c1 (stereo not shown) [Compound 182] | > 25 | > 50 |
| COCn1c(-c2cc(NC(=O)N3CCCC3)ccc2Cl)nc2ncc(Br)cc21 [Example 386] | 4.3 | 4.3 |
